According to the supplement of paper PMC5908809:

Tests used:
[1] = test system: normal NK cells expanded with K562-aAPC; test: percent inhibition of viability; higher = more inhibition; conditions: 72 h, IL-2 2.5 ng/mL
Method: (§1)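 Drug sensitivity and resistance testing on K562-aAPC-expanded normal NK cells: 5 concentrations (10-fold steps over a 10,000-fold range), 72 h at 37 °C, viability by CellTiter-Glo normalised to DMSO and benzethonium chloride controls; DSS from the fitted curve.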

DERL-7 (IL-2 2.5 ng/mL) [2] = test: as above; conditions: 72 h
IMC-1 (IL-2 20 ng/mL) [3] = test: as above; conditions: 72 h
KAI3 (IL-2 2.5 ng/mL) [4] = test: as above; conditions: 72 h
KHYG-1 (IL-2 2.5 ng/mL) [5] = test: as above; conditions: 72 h
NK-92 (IL-2 2.5 ng/mL) [6] = test: as above; conditions: 72 h
NK-YS (IL-2 2.5 ng/mL) [7] = test: as above; conditions: 72 h
NKL (IL-2 2.5 ng/mL) [8] = test: as above; conditions: 72 h
SNK-6 (IL-2 2.5 ng/mL) [9] = test: as above; conditions: 72 h
YT (IL-2 2.5 ng/mL) [10] = test: as above; conditions: 72 h
[11] = test system: normal primary NK cells, pool 1 (3 donors) (IL-2 2.5 ng/mL); test: as above; conditions: 72 h
[12] = test system: normal primary NK cells, pool 1 (3 donors), resting (IL-2 0 ng/mL); test: as above; conditions: 72 h
[13] = test system: normal primary NK cells, pool 2 (3 donors) (IL-2 2.5 ng/mL); test: as above; conditions: 72 h
[14] = test system: normal primary NK cells, pool 3 (3 donors) (IL-2 2.5 ng/mL); test: as above; conditions: 72 h
[15] = test system: normal NK cells expanded with K562-aAPC; test: drug sensitivity score (DSS) (DSS units); higher = more sensitive; extreme values may be limits of the assay; conditions: 72 h; IL-2 2.5 ng/mL
Method: as §1

DERL-7 (IL-2 2.5 ng/mL) [16] = test: as above; conditions: 72 h
IMC-1 (IL-2 20 ng/mL) [17] = test: as above; conditions: 72 h
KAI3 (IL-2 2.5 ng/mL) [18] = test: as above; conditions: 72 h
KHYG-1 (IL-2 2.5 ng/mL) [19] = test: as above; conditions: 72 h
NK-92 (IL-2 2.5 ng/mL) [20] = test: as above; conditions: 72 h
NK-YS (IL-2 2.5 ng/mL) [21] = test: as above; conditions: 72 h
NKL (IL-2 2.5 ng/mL) [22] = test: as above; conditions: 72 h
SNK-6 (IL-2 2.5 ng/mL) [23] = test: as above; conditions: 72 h
YT (IL-2 2.5 ng/mL) [24] = test: as above; conditions: 72 h
[25] = test system: normal primary NK cells, pool 1 (3 donors) (IL-2 2.5 ng/mL); test: as above; conditions: 72 h
[26] = test system: normal primary NK cells, pool 1 (3 donors), resting (IL-2 0 ng/mL); test: as above; conditions: 72 h
[27] = test system: normal primary NK cells, pool 2 (3 donors) (IL-2 2.5 ng/mL); test: as above; conditions: 72 h
[28] = test system: normal primary NK cells, pool 3 (3 donors) (IL-2 2.5 ng/mL); test: as above; conditions: 72 h

CCOc1ccn(-c2ccc(F)cc2)c(=O)c1C(=O)Nc1ccc(Oc2ccnc(N)c2Cl)c(F)c1 (max concentration tested 2500 nM)
percent inhibition of viability [%]
Conditions | 0.25 nM | 2.5 nM | 25 nM | 250 nM | 2500 nM
DERL-7 (IL-2 2.5 ng/mL) [2] | 0.56 | 6.06 | -1.35 | -3.94 | -13.7
IMC-1 (IL-2 20 ng/mL) [3] | 1.35 | 4.61 | 9.25 | 10.7 | 18.1
KAI3 (IL-2 2.5 ng/mL) [4] | -2.82 | -5.11 | 1.22 | -8.32 | 20.1
KHYG-1 (IL-2 2.5 ng/mL) [5] | 2.8 | 3.63 | 7.75 | 3.92 | 7.23
NK-92 (IL-2 2.5 ng/mL) [6] | 3.4 | -2.02 | 21.5 | -9.18 | 16.5
NK-YS (IL-2 2.5 ng/mL) [7] | 2.13 | -0.09 | 0.55 | -3.25 | 13.2
NKL (IL-2 2.5 ng/mL) [8] | -8.21 | -0.56 | -2.88 | 6.9 | -2.79
SNK-6 (IL-2 2.5 ng/mL) [9] | 22.9 | 33.8 | 31.2 | 18.3 | 22.9
YT (IL-2 2.5 ng/mL) [10] | 2.07 | 4.23 | 5.47 | 0.52 | 37
[1] | 2.01 | 1.6 | -0.61 | 0.57 | 7.12
[11] | 0.3 | -5.73 | -0.6 | -11.2 | -8.87
[12] | 1.56 | -12.4 | -1.07 | -26.3 | -16.3
[13] | -3.75 | 2.69 | -0.75 | -6 | 3.09
[14] | -11.7 | 1.36 | -4.15 | -4.08 | -3.34

Conditions | drug sensitivity score
DERL-7 (IL-2 2.5 ng/mL) [16] | 0
IMC-1 (IL-2 20 ng/mL) [17] | 1.25
KAI3 (IL-2 2.5 ng/mL) [18] | 0.35
KHYG-1 (IL-2 2.5 ng/mL) [19] | 0
NK-92 (IL-2 2.5 ng/mL) [20] | 0.14
NK-YS (IL-2 2.5 ng/mL) [21] | 0.06
NKL (IL-2 2.5 ng/mL) [22] | 0
SNK-6 (IL-2 2.5 ng/mL) [23] | 0.23
YT (IL-2 2.5 ng/mL) [24] | 1.85
[15] | 0
[25] | 0
[26] | 0
[27] | 0
[28] | 0

Cc1ccccc1C(C(=O)NC1CCCCC1)N(C(=O)Cn1ccnc1C)c1cccc(F)c1 (configuration not stated) [AGI-5198] (max concentration tested 10000 nM)
percent inhibition of viability [%]
Conditions | 1 nM | 10 nM | 100 nM | 1000 nM | 10000 nM
DERL-7 (IL-2 2.5 ng/mL) [2] | -2.01 | 0.12 | 2.86 | 4.19 | 4.9
IMC-1 (IL-2 20 ng/mL) [3] | -3.01 | 0.83 | 3.36 | -0.42 | 6.36
KAI3 (IL-2 2.5 ng/mL) [4] | 1.08 | -2.21 | 4.4 | -7.93 | 5.53
KHYG-1 (IL-2 2.5 ng/mL) [5] | 2.51 | 1.12 | 2.9 | 0.31 | 10.8
NK-92 (IL-2 2.5 ng/mL) [6] | -13.7 | -5.86 | 2.38 | -10.7 | 12.8
NK-YS (IL-2 2.5 ng/mL) [7] | 1.52 | -1.9 | 7.02 | -2.36 | 15.5
NKL (IL-2 2.5 ng/mL) [8] | -11.8 | 5.55 | 4.44 | 6.62 | 15.3
SNK-6 (IL-2 2.5 ng/mL) [9] | 8.4 | 14.1 | -2.27 | 3.58 | 14.7
YT (IL-2 2.5 ng/mL) [10] | 0.66 | 2.4 | 5.93 | 3.4 | 10.8
[1] | -2.75 | -1.08 | -4.23 | 1.75 | 3.84
[11] | -4.32 | -10.5 | -2.82 | -8.59 | -1.32
[12] | 7.51 | -9.12 | -0.43 | -14.1 | -4.43
[13] | -13.6 | -0.73 | 3.47 | 6.75 | 9.8
[14] | -10 | -4.39 | -0.6 | 2.48 | 5.96

Conditions | drug sensitivity score
DERL-7 (IL-2 2.5 ng/mL) [16] | 0
IMC-1 (IL-2 20 ng/mL) [17] | 0
KAI3 (IL-2 2.5 ng/mL) [18] | 0
KHYG-1 (IL-2 2.5 ng/mL) [19] | 0
NK-92 (IL-2 2.5 ng/mL) [20] | 0.01
NK-YS (IL-2 2.5 ng/mL) [21] | 0.18
NKL (IL-2 2.5 ng/mL) [22] | 0.33
SNK-6 (IL-2 2.5 ng/mL) [23] | 0.54
YT (IL-2 2.5 ng/mL) [24] | 0
[15] | 0
[25] | 0
[26] | 0
[27] | 0
[28] | 0

CCc1cc2c(cc1N1CCC(N3CCOCC3)CC1)C(C)(C)c1[nH]c3cc(C#N)ccc3c1C2=O [Alectinib] (max concentration tested 1000 nM)
percent inhibition of viability [%]
Conditions | 0.1 nM | 1 nM | 10 nM | 100 nM | 1000 nM
DERL-7 (IL-2 2.5 ng/mL) [2] | -1.51 | -2.79 | -1.59 | -8.82 | 13
IMC-1 (IL-2 20 ng/mL) [3] | -2.94 | 1.06 | -2.15 | -2.79 | -0.64
KAI3 (IL-2 2.5 ng/mL) [4] | -3.74 | 3.89 | 3.63 | 1.36 | -4
KHYG-1 (IL-2 2.5 ng/mL) [5] | -3.94 | 0.6 | -1.88 | 10.3 | 14.5
NK-92 (IL-2 2.5 ng/mL) [6] | -7.49 | -8.89 | -12 | 9.46 | 24.4
NK-YS (IL-2 2.5 ng/mL) [7] | -5.67 | -3.61 | -7.75 | 6.14 | 18.4
NKL (IL-2 2.5 ng/mL) [8] | -9 | -7.92 | -11.6 | -10.4 | 20.1
SNK-6 (IL-2 2.5 ng/mL) [9] | -2.43 | -0.7 | -18.9 | -29 | -2.44
YT (IL-2 2.5 ng/mL) [10] | -3.8 | -4.08 | -6.26 | 0.11 | 2.48
[1] | 0.14 | -2.95 | -2.33 | -2.36 | 4.52
[11] | -1.7 | -9.82 | -10.4 | -1.45 | 0.6
[12] | -6.37 | -4.08 | -8.77 | 1.83 | 12.5
[13] | -3.03 | -7.68 | -3.35 | -8.46 | 3.39
[14] | -8.17 | -9.65 | -5.32 | -8.21 | -0.39

Conditions | drug sensitivity score
DERL-7 (IL-2 2.5 ng/mL) [16] | 0.02
IMC-1 (IL-2 20 ng/mL) [17] | 0
KAI3 (IL-2 2.5 ng/mL) [18] | 0
KHYG-1 (IL-2 2.5 ng/mL) [19] | 0.86
NK-92 (IL-2 2.5 ng/mL) [20] | 2.08
NK-YS (IL-2 2.5 ng/mL) [21] | 1.14
NKL (IL-2 2.5 ng/mL) [22] | 0.33
SNK-6 (IL-2 2.5 ng/mL) [23] | 0
YT (IL-2 2.5 ng/mL) [24] | 0
[15] | 0
[25] | 0
[26] | 0.17
[27] | 0
[28] | 0
